Measurements from patent US5962415A, “Compositions comprising a peptide inhibitor of nuclear protein translocation and an immunosuppressant and methods of use thereof” (Bristol-Myers Squibb Co., priority 1998, dated 1999).

Columns and labels:
[1] = tested on: 70Z/3 murine leukemia pre-B cells; assay: LPS-stimulated surface antigen expression (κ Ig light chain, IL-2 receptor, CD45) in 70Z/3 cells; format: cell-based
Procedure: (§1) Expression of κ Ig, CD45, CD40, and the interleukin-2 receptor was assayed using standard enzyme-linked immunosorbent assays ("ELISAs") (see, Coligan et al. (eds.) (1991) Current Protocols in Immunology, Wiley & Sons, p. 2.10 or by FACS staining to measure cell-surface markers as described in Raff (1970) Immunology 19:637). Antibodies form cell surface markers were obtained from Pharmingen Co.
The effect of the SV40MEM polypeptide was compared with two additional polypeptides, […] (SEQ ID NO:2) (the "HIV-1MEM" polypeptide), which is composed of the membrane translocation domain of FGF flanked by the NLS from the HIV-1 matrix protein and […] (SEQ ID NO:3) (the "C-MYCMEM" polypeptide), which contains the NLS from the human c-myc oncoprotein (Chelsky et al. (1989), supra, and Dang et al. (1988), supra) using murine 70Z/3 pre-B cells.
Murine 70Z/3 cells (ATCC TlD-158) are a model cell line for analyzing the effects of compounds on B-cell differentiation. In response to S. typhosa LPS (Difco) or γ-interferon, these cells differentiate from surface κ immunoglobulin negative to κ Ig positive.
[…] of: (1) a peptide containing only the FGF signal sequence AAVALLPAVLLALLAP (SEQ ID NO:4) (the "MEM" peptide); (2) a polypeptide having the FGF signal sequence and the NLS of NF-κB p50 on the carboxy terminus of the signal sequence, namely, the NF-κBMEM polypeptide; (3) the SV40MEM polypeptide comprised of L-amino acids; or (4) the SV40MEM polypeptide comprised of D-amino acids. The cells were then incubated with LPS as described in Example 2 and assayed for expression of κ light chain expression.

[2] = tested on: 70Z/3 murine B-cells; assay: LPS-induced CD40 expression in 70Z/3 cells; format: cell-based; settings: 3 hr treatment prior to LPS, FIG. 5
Procedure: as §1
70Z/3 murine B-cells were treated with the SV40MEM polypeptide for 3 hr prior to activation with LPS. After activation with LPS, there was an approximately four-fold increase in CD40 expression above basal levels.

[3] = tested on: HIVLAI in Jurkat cells; assay: Nuclear translocation of HIV genome in Jurkat cells infected with HIVLAI (gag and 2-LTR circle PCR); format: cell-based, HIV-1; settings: SV40MEM 0.1 and 1.0 μM; NF-κBMEM 10 μM; 24 hr, FIG. 8B
Procedure: HIV-1 M1 p24 levels were assayed using the procedures described in Smithgall et al (1995) AIDS Res. and Human Retrovirus 11:885. Proviral DNA content (gag) was measured using polymerase chain reaction analysis as described in Smithgall et al. (1995), supra.
2-LTR circles, a strictly nuclear form of HIV-1 DNA the expression of which indicates nuclear localization of the viral genome, was measured by as described in Bukrinsky et al (1991) Science 254:423.
Jurkat cells were incubated with the SV40MEM polypeptide for 3 hr with HIVLAI for 1-2 hr. The virus was washed out and the cultures supplemented with the appropriate inhibitor (SV40MEM, 0.1,μM and 1.0 μM; NF-κBMEM, 10 μM). After 24 hr, the cells were collected, lysed and evaluated for HIV-1 DNA by polymerase chain reaction analysis of gag sequences (see FIG. 8A) and 2-LTR circles (see FIG. 8B).

[4] = tested on: BALB/c mice immunized with sheep red blood cells; assay: Murine sheep red blood cell assay (anti-SRBC antibody response); format: in vivo
Procedure: Female BALB/c mice (6-8 weeks of age) were housed in groups of 5 in Thorne units with ad libitum access to food and water. Mice were immunized on day 0 by intravenous (IV) injection of 1×10^8 sheep red blood cells ("SRBCs"). The mice were then divided into groups of five and control solutions or inhibitory peptides were administered at various doses, either by IV injection or orally ("PO") by gavage with a 24-gauge feeding tube and routes.
The SV40MEM polypeptide was administered either intravenously (IV) or orally (PO) with the following schedule: IV administration of 5 mg/kg on days 0, 1, 2, and 3; PO administration of 1 mg/kg on days 0, 1, 2, 3, and 4. After 14 days, the mice were bled from the orbital sinus and the level of anti-SRBC antibodies were measured in the serum by ELISA. Briefly, Immulon 2 plates (Dynatech) were coated with SRBC membrane antigen (Anal. Biochem. 82:362-371 (1978)) at 5 μg/ml in 0.05 M carbonate/bicarbonate buffer (pH 9.6) and incubated overnight at 2-8° C. Plates were blocked for 1-hr at room temperature with Specimen Diluent Concentrate (Genetic Systems, Redmond, Wash.) diluted 1:10 with distilled water. The plates were washed in phosphate-buffered saline and 0.05% Tween-20 ("PBS/Tween"). Serum samples were diluted in Specimen Diluent and incubated for 1 hr at room temperature. After washing the plates in PBS/Tween, goat anti-mouse IgG1-horse radish peroxidase-conjugated ("IgG1-HRP") antibody (Southern Biotechnology, Birmingham Ala.) was added at 1:5000 dilution and incubated for 1 hr at room temperature. Plates were washed and conjugate binding was detected using 3,3',5,5'-tetramethylbenzidine ("TMB") (Genetic Systems) as the substrate. TMB was added and incubated for 15 min at room temperature. The reaction was stopped by the addition of 3 N H2 SO4. Absorbance at […] was recorded from duplicate samples using a microtiter plate reader (Bio Tek Instruments).

[5] = tested on: Jurkat T-cells; assay: Apoptosis in anti-CD3-treated Jurkat T-cells; format: cell-based, human
Procedure: A 24-hr incubation of Jurkat T-cells with SV40MEM and anti-CD3, caused greater than 85% of the cells to apoptose.

[6] = tested on: IκB; assay: IκB degradation in LPS-activated 70Z/3 cells (Western analysis); format: cell-based, murine; settings: 2 μM, LPS 100 ng/ml for 0-120 min
Procedure: IκB is an inhibitor of NF-κB nuclear translocation. When cells are activated by the appropriate proinflammatory stimulus, e.g., cytokines or LPS, IκB is degraded. […] This experiment was done to explore the effect of the SV40MEM polypeptide on IKB degradation in murine 70Z/3 cells.
Murine 70Z/3 cells (5×10^7 cells) were incubated with the SV40MEM polypeptide (2 μM) or PBS. The two groups of cells were subdivided into aliquots and activated with LPS (100 ng/ml) for 0, 15, 30, 60, or 120 min. The cells were lysed in 200 μL lysing buffer (20 mM N-(2-hydroxyethyl)piperazine-N'-(2-ethanesulfonic acid) ("HEPES"), pH 7.2, 20 mM NaCl, 2.5 mM MgCI2, 0.1% nonylphenoxy polyethoxy ethanol ("NP-40")). The lysates were frozen until analyzed for the presence of IκB by Western analysis using an antibody directed to the carboxy terminus of IκB (Santa Cruz Corp., Santa Cruz, Calif.) according to the manufacturer's instructions.

[7] = IV 5 mg/kg days 0-3, serum day 14, FIG. 11A
[8] = PO 1 mg/kg days 0-4, serum day 14, FIG. 11B

Sequence: PKKKRKVAAVALLPAVLLALLAPKKKRKVC [SV40MEM, FGF signal peptide hydrophobic region flanked by SV40 large T antigen NLS]
- expression of CD45 ([1]; LPS-stimulated, FIG. 1A): no effect
- expression of the interleukin-2 receptor ([1]; LPS-stimulated, FIG. 1A): no effect
- inhibition of κ light chain expression ([1]; response to S. typhosa LPS, 1-hr pretreatment, FIG. 1A): 75-80%
- effect of increasing LPS concentration on the inhibitory effect ([1]; κ Ig light chain production, FIG. 1C): can be overcome by increasing the concentration of LPS
- LPS-induced up-regulation of CD40 [2]: inhibited this up-regulation of CD40
- translocation of the viral genome into the nucleus (2-LTR circles) [3]: inhibited translocation of the viral genome into the nucleus
- specific anti-SRBC response [4, 7]: inhibited
- total IgG levels [4, 7]: no effect
- specific anti-SRBC response [4, 8]: inhibited
- total IgG levels [4, 8]: no effect
- cells undergoing apoptosis ([5]; 24-hr incubation with SV40MEM and anti-CD3): greater than 85%
- apoptosis ([5]; SV40MEM alone, without anti-CD3): Neither SV40MEM nor anti-CD3 alone caused significant apoptosis
- degradation of IκB [6]: no apparent degradation of IκB
